The values that follow come from PubChem BioAssay AID256 (DTP/NCI, 2004).

For this test, the system named is CD2F1 mice, L1210 leukemia ip, survival T/C. Put plainly: NCI In Vivo Anticancer Drug Screen. Data for tumor model L1210 Leukemia (intraperitoneal) in CD2F1 (CDF1) mice. As to conditions: endpoint: mean survival time, higher = longer survival. Put shortly:
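Read-out first: treated-group measurement over vehicle-control measurement, expressed as a ratio. Animals bore a transplanted tumor line and were dosed with compound or vehicle.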

Where [1] appears, read: dose: 25.0 mg/kg/injection, schedule: Q04DX003 (ip), vehicle: saline with Tween-80.
The mark [2] stands for this setting: dose: 50.0 mg/kg/injection, schedule: Q04DX003 (ip), vehicle: saline with Tween-80.
Where [3] appears, read: dose: 100.0 mg/kg/injection, schedule: Q04DX003 (ip), vehicle: saline with Tween-80.
Where [4] appears, read: dose: 12.5 mg/kg/injection, schedule: Q01DX005 (ip), vehicle: other.
The mark [5] stands for this setting: dose: 25.0 mg/kg/injection, schedule: Q01DX005 (ip), vehicle: other.
Setting [6] is: dose: 100.0 mg/kg/injection, schedule: Q04DX002 (ip), vehicle: saline with Tween-80.
The mark [7] stands for this setting: dose: 200.0 mg/kg/injection, schedule: Q04DX002 (ip), vehicle: saline with Tween-80.
The mark [8] stands for this setting: dose: 100.0 mg/kg/injection, schedule: Q01DX001 (ip), vehicle: saline with Tween-80.
Setting [9] is: dose: 200.0 mg/kg/injection, schedule: Q01DX001 (ip), vehicle: saline with Tween-80.
Where [10] appears, read: dose: 400.0 mg/kg/injection, schedule: Q01DX001 (ip), vehicle: saline with Tween-80.
Where [11] appears, read: dose: 400.0 mg/kg/injection, schedule: Q04DX002 (ip), vehicle: saline with Tween-80.
The mark [12] stands for this setting: dose: 200.0 mg/kg/injection, schedule: Q04DX003 (ip), vehicle: saline with Tween-80.

Structures are written as SMILES. Where “and” joins values, the source holds several entries; their conditions need not be identical. Equal entries are not always repeated. Toxic doses and inconclusive results are not listed.

`CC(=O)Nc1cccc(OCOc2ccc([N+](=O)[O-])cc2)c1`: the T/C runs as follows: (dose: 100.0 mg/kg/injection, schedule: Q01DX001 (ip), vehicle: Klucel (hydroxypropylcellulose) (HPC)) 90 % of control; (dose: 200.0 mg/kg/injection, schedule: Q01DX001 (ip), vehicle: Klucel (hydroxypropylcellulose) (HPC)) 110 % of control; (dose: 400.0 mg/kg/injection, schedule: Q01DX001 (ip), vehicle: Klucel (hydroxypropylcellulose) (HPC)) 97 % of control.
With `O=C1CN(Cl)C(=O)CN1Cl`, the T/C is, setting by setting: (dose: 37.5 mg/kg/injection, schedule: Q04DX002 (ip), vehicle: saline with Tween-80) 98 % of control; (dose: 75.0 mg/kg/injection, schedule: Q04DX002 (ip), vehicle: saline with Tween-80) 98 % of control; (dose: 150.0 mg/kg/injection, schedule: Q04DX002 (ip), vehicle: saline with Tween-80) 102 % of control.
`COC(=O)C[N+]1(C)C2CCC1CC(Cl)C2` (configuration not stated): the T/C is, setting by setting: (dose: 12.5 mg/kg/injection, schedule: Q01DX001 (ip), vehicle: saline) 109 % of control; (dose: 25.0 mg/kg/injection, schedule: Q01DX001 (ip), vehicle: saline) 113 % of control.
For `NNS(=O)(=O)c1ccccc1`, the T/C by setting is: under setting [1], 97 % of control; under setting [2], 97 % of control; under setting [3], 94 % of control.
`Cc1cn(C2CC(O)C(CN=[N+]=[N-])O2)c(=O)[nH]c1=O` (configuration not stated): the T/C reads like this: under setting [4], 93 % of control; under setting [5], 96 % of control; (dose: 50.0 mg/kg/injection, schedule: Q01DX005 (ip), vehicle: other) 95 % of control; (dose: 100.0 mg/kg/injection, schedule: Q01DX005 (ip), vehicle: other) 93 % of control; (dose: 200.0 mg/kg/injection, schedule: Q01DX005 (ip), vehicle: other) 93 % of control.
Take `CC(=O)O.CC(=O)O.O.[Fe]`: the T/C is 98 % of control (dose: 100.0 mg/kg/injection, schedule: Q01DX001 (ip), vehicle: saline); 96 % of control (dose: 200.0 mg/kg/injection, schedule: Q01DX001 (ip), vehicle: saline); 100 % of control (dose: 400.0 mg/kg/injection, schedule: Q01DX001 (ip), vehicle: saline).
`c1coc(CNc2ncnc3c2ncn3Cc2ccco2)c1`: the T/C is 96 % of control (dose: 6.25 mg/kg/injection, schedule: Q01DX005 (ip), vehicle: other); 90 % of control under setting [4]; 90 % of control under setting [5].
With `O=C(Nc1ccc([N+](=O)[O-])cc1)OCC#CC#CCOC(=O)Nc1ccc([N+](=O)[O-])cc1`, the T/C was 94 % of control (dose: 100.0 mg/kg/injection, schedule: Q04DX003 (ip), vehicle: Klucel (hydroxypropylcellulose) (HPC)) and 94 % of control (dose: 200.0 mg/kg/injection, schedule: Q04DX003 (ip), vehicle: Klucel (hydroxypropylcellulose) (HPC)).
Consider `C[n+]1cccc(C(=O)N/N=C/CCc2ccccc2)c1`, for which the T/C is 92 % of control (dose: 12.5 mg/kg/injection, schedule: Q01DX009 (ip), vehicle: saline with Tween-80); 93 % of control (dose: 25.0 mg/kg/injection, schedule: Q01DX009 (ip), vehicle: saline with Tween-80); 100 % of control (dose: 25.0 mg/kg/injection, schedule: Q04DX002 (ip), vehicle: saline with Tween-80); 97 % of control (dose: 50.0 mg/kg/injection, schedule: Q01DX009 (ip), vehicle: saline with Tween-80); 95 % of control (dose: 50.0 mg/kg/injection, schedule: Q04DX002 (ip), vehicle: saline with Tween-80); 97 % of control (dose: 100.0 mg/kg/injection, schedule: Q01DX009 (ip), vehicle: saline with Tween-80). In addition, the T/C reads like this: under setting [6], 101 % of control; under setting [7], 97 % of control.
On to `CC(=O)C(C(C)=O)C(c1cccnc1)C(C(C)=O)C(C)=O`, for which the T/C is 104 % of control under setting [8], 107 % of control under setting [9] and 98 % of control under setting [10].
With `COC(=O)C1CCCC(=O)C1C(=O)OC` (configuration not stated), the T/C is 95 % of control (dose: 100.0 mg/kg/injection, schedule: Q01DX009 (ip), vehicle: other); 101 % of control (dose: 200.0 mg/kg/injection, schedule: Q01DX009 (ip), vehicle: other); 92 % of control (dose: 400.0 mg/kg/injection, schedule: Q01DX009 (ip), vehicle: other).
Take `O=c1[nH]c(N[N+](=O)[O-])nc(-c2ccccc2)c1Br`: the T/C reads like this: under setting [6], 103 % of control; under setting [7], 100 % of control; under setting [11], 92 % of control.
In the case of `CC1CC(C)(C)NC(CCC2CCCCC23OCCO3)O1` (configuration not stated), the T/C under setting [8] was 107 % of control, the T/C under setting [9] is 105 % of control and the T/C under setting [10] is 97 % of control.
As to `CC12CC(c3ccccc3)C(C)(C(c3ccccc3)=C1c1ccccc1)C2(O)c1ccccc1` (configuration not stated), the T/C is 94 % of control under setting [6], 86 % of control under setting [7] and 94 % of control under setting [11].
As to `COc1ccc(Nc2ccnc3cc(Cl)ccc23)cc1CN(CCCl)CCCl`, the T/C is, setting by setting: (dose: 6.25 mg/kg/injection, schedule: Q01DX009 (ip), vehicle: saline) 117 % of control; (dose: 25.0 mg/kg/injection, schedule: Q01DX009 (ip), vehicle: saline) 88 % of control.
For `COc1ccc(OC)c(C2N(C)CCCN2C)c1`, the T/C was 90 % of control (dose: 6.25 mg/kg/injection, schedule: Q01DX009 (ip), vehicle: saline sonified); 100 % of control (dose: 6.25 mg/kg/injection, schedule: Q04DX003 (ip), vehicle: saline sonified); 88 % of control (dose: 12.5 mg/kg/injection, schedule: Q01DX009 (ip), vehicle: saline sonified); 101 % of control (dose: 12.5 mg/kg/injection, schedule: Q04DX003 (ip), vehicle: saline sonified); 103 % of control (dose: 25.0 mg/kg/injection, schedule: Q01DX009 (ip), vehicle: saline sonified); 100 % of control (dose: 25.0 mg/kg/injection, schedule: Q04DX003 (ip), vehicle: saline sonified).
As for `O=C1CCC2(CCC(=O)O2)O1`, the T/C by setting is: (dose: 100.0 mg/kg/injection, schedule: Q04DX003 (ip), vehicle: saline) 94 % of control; (dose: 200.0 mg/kg/injection, schedule: Q04DX003 (ip), vehicle: saline) 100 % of control; (dose: 400.0 mg/kg/injection, schedule: Q04DX003 (ip), vehicle: saline) 93 % of control.
On to `Cc1ccc(N)cc1` (tested in a mixture with another compound), for which the T/C (dose: 12.5 mg/kg/injection, schedule: Q04DX003 (ip), vehicle: saline with Tween-80) is 97 % of control; the T/C under setting [1] is 101 % of control and 103 % of control; the T/C under setting [2] was 107 % of control; the T/C under setting [3] was 110 % of control and 103 % of control and 107 % of control; the T/C under setting [12] was 105 % of control and 117 % of control; the T/C (dose: 400.0 mg/kg/injection, schedule: Q04DX003 (ip), vehicle: saline with Tween-80) is 102 % of control.
For the compound `[O-]c1cc2c3c(c1)c1cc4c(cc1c[n+]3C=C2)OCO4`, the T/C (dose: 3.13 mg/kg/injection, schedule: Q01DX009 (ip), vehicle: other) was 100 % of control; the T/C (dose: 3.13 mg/kg/injection, schedule: Q01DX009 (ip), vehicle: water) is 114 % of control; the T/C (dose: 6.25 mg/kg/injection, schedule: Q01DX009 (ip), vehicle: other) is 109 % of control; the T/C (dose: 6.25 mg/kg/injection, schedule: Q01DX009 (ip), vehicle: water) was 120 % of control and 122 % of control; the T/C (dose: 12.5 mg/kg/injection, schedule: Q01DX009 (ip), vehicle: other) is 110 % of control; the T/C (dose: 12.5 mg/kg/injection, schedule: Q01DX009 (ip), vehicle: water) was 124 % of control. The T/C was 118 % of control (dose: 25.0 mg/kg/injection, schedule: Q01DX009 (ip), vehicle: other); 150 % of control (dose: 25.0 mg/kg/injection, schedule: Q01DX009 (ip), vehicle: water); 115 % of control (dose: 50.0 mg/kg/injection, schedule: Q01DX009 (ip), vehicle: water); 124 % of control (dose: 100.0 mg/kg/injection, schedule: Q01DX009 (ip), vehicle: water).
Regarding `Clc1ccccc1-c1nc2ccccc2[nH]1`, the T/C was 98 % of control under setting [2], 96 % of control under setting [3] and 96 % of control under setting [12].
